From patent publication US10793568B2, “Hormone receptor modulators for treating metabolic conditions and disorders” (ARDELYX, INC., priority 2016, dated 2020) come the findings set out here.

Structures are written as SMILES. Read-outs that look alike come from different tables or passages of the source.

In assay [1] the target is human Farnesoid X receptor ligand-binding domain/Gal4 DNA binding domain chimera (Homo sapiens (Human), UniProt Q96RI1). In words: Cell-based assay of FXR activation (FXR-UAS-bla HEK 293T beta-lactamase reporter). The note with it: cellular FXR beta-lactamase reporter assay; for Emax: HEK-293T, extent of activation relative to GW4064, read-out: % Efficacy; for EC50: FXR-UAS-bla HEK 293T cells, 16 h, pEC50 = -log EC50. In short, it runs like this:
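HEK 293T cells stably expressing a Gal4-fused human FXR LBD and a UAS-driven beta-lactamase reporter were incubated with serially diluted compounds for 16 h at 37 °C in phenol red-free DMEM with 2% charcoal-stripped FBS. CCF4 FRET read-out: excitation 409 nm, emission 447 nm. pEC50 comes from a 3-parameter logistic fit, and efficacy is given as % of GW4064.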

The target in assay [2] is ligand binding domain of human FXR (Homo sapiens (Human), UniProt Q96RI1). The experiment in a line: FXR ligand binding assay (LanthaScreen TR-FRET, SRC2-2 peptide recruitment). The note with it: for pEC50: -log EC50, concentration required to produce 50% activation; for Emax: read-out: % Efficacy. (In general: In TR-FRET formats the signal depends on donor and acceptor labels being close together.)

Where [3] appears, read: extent of activation relative to GW4064.

human Farnesoid X receptor ligand-binding domain/Gal4 DNA binding domain chimera, sequence (Q96RI1 262-486, change not shown): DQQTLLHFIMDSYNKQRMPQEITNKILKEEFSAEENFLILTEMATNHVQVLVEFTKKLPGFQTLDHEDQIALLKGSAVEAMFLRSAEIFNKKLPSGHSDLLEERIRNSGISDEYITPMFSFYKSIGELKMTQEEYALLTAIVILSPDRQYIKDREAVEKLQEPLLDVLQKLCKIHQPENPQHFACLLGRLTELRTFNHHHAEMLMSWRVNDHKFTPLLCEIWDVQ
human Farnesoid X receptor ligand-binding domain/Gal4 DNA binding domain chimera, sequence (P04386 1-147 partner): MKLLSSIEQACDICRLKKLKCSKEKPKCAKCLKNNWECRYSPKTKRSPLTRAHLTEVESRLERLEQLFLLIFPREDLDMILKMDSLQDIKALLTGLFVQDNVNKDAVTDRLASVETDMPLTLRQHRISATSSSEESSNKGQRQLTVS
ligand binding domain of human FXR, sequence (Q96RI1 262-486): as the sequence (Q96RI1 262-486, change not shown) above

By EC50 is commonly meant the concentration that produces a half-maximal response. A lower EC50 goes with higher potency in that assay. By pEC50 is commonly meant the EC50 on a negative log10 scale, so that one unit is a factor of ten. As for `O=C(NS(=O)(=O)[C@@H]1CCC[C@H]1O)c1ccc(N2C(=O)[C@@H]3C[C@H]2C[C@H]3OCc2c(-c3c(Cl)cccc3Cl)noc2C2CC2)cc1F` [Compound I-346, 4-[(1S,4R,5R)-5-{[5-cyclopropyl-3-(2,6-dichlorophenyl)-1,2-oxazol-4-yl]methoxy}-3-oxo-2-azabicyclo[2.2.1]heptan-2-yl]-2-fluoro-N-{[(1R,2R)-2-hydroxycyclopentyl]sulfonyl}benzamide], in assay [1], the Emax was determined as 133% and the response was half-maximal at 0.794 nM (EC50). This compound also yielded a pEC50 in assay [2] of 8.2. Further, in assay [2] (setting [3]), the Emax worked out at 188%.

Take `CCCS(=O)(=O)NC(=O)c1cnc(N2C[C@@H]3C[C@H]2C[C@H]3OCc2c(-c3c(Cl)cccc3Cl)noc2C2CC2)c(F)c1` [Compound I-206, 6-((1S,4S,5R)-5-((5-cyclopropyl-3-(2,6-dichlorophenyl)isoxazol-4-yl)methoxy)-2-azabicyclo[2.2.1]heptan-2-yl)-5-fluoro-N-(propylsulfonyl)nicotinamide]: in assay [1], the Emax worked out at 104% and the EC50 was 1.58 nM. The compound further came in with a pEC50 in assay [2] of 8.4. The Emax in assay [2] (setting [3]) was 159%.

For `O=C(NS(=O)(=O)CC1CCOC1)c1ccc(N2C(=O)[C@@H]3C[C@H]2C[C@H]3OCc2c(-c3c(Cl)cccc3Cl)noc2C2CC2)cc1F` (stereo partly drawn) [Compound I-335, 4-((1S,4R,5R)-5-((5-cyclopropyl-3-(2,6-dichlorophenyl)isoxazol-4-yl)methoxy)-3-oxo-2-azabicyclo[2.2.1]heptan-2-yl)-2-fluoro-N-(((tetrahydrofuran-3-yl)methyl)sulfonyl)benzamide], the Emax worked out at 108% in assay [1] and 172% in assay [2] (setting [3]). In assay [1], the EC50 was 1 nM. Also, in assay [2], the pEC50 was 8.8.

For the compound `CC1(C)CC(S(=O)(=O)NC(=O)c2ccc(N3C(=O)[C@@H]4C[C@H]3C[C@H]4OCc3c(-c4c(Cl)cccc4Cl)noc3C3CC3)cc2)CCO1` (stereo partly drawn) [Compound I-329, 4-[(1S,4R,5R)-5-{[5-cyclopropyl-3-(2,6-dichlorophenyl)-1,2-oxazol-4-yl]methoxy}-3-oxo-2-azabicyclo[2.2.1]heptan-2-yl]-N-[(2,2-dimethyloxan-4-yl)sulfonyl]benzamide], in assay [1], the Emax worked out at 117% and the response was half-maximal at 0.794 nM (EC50). Besides, the pEC50 in assay [2] is listed as 9. The Emax in assay [2] (setting [3]) was 162%.

In the case of `Cc1cccc(C)c1-c1noc(C2CC2)c1CO[C@@H]1C[C@@H]2C[C@H]1CN2c1ccc(C(=O)O)cc1` [Compound I-117, 4-[(1S,4S,5R)-5-{[5-cyclopropyl-3-(2,6-dimethylphenyl)-1,2-oxazol-4-yl]methoxy}-2-azabicyclo[2.2.1]heptan-2-yl]benzoic Acid], the Emax came to 100% in assay [1] and 113% in assay [2] (setting [3]). In assay [1], this compound gave an EC50 of 7.94 nM. The pEC50 in assay [2] stood at 8.2.

`CC(C)(C)c1cc(C(=O)O)cc2sc(N3C[C@@H]4C[C@H]3C[C@H]4OCc3c(-c4c(Cl)cccc4Cl)noc3C3CC3)nc12` [Compound I-248, 4-tert-butyl-2-[(1S,4S,5R)-5-{[5-cyclopropyl-3-(2,6-dichlorophenyl)-1,2-oxazol-4-yl]methoxy}-2-azabicyclo[2.2.1]heptan-2-yl]-1,3-benzothiazole-6-carboxylic Acid]: in assay [1], the Emax was found to be 112% and the EC50 is 0.631 nM. In assay [2], this compound gave a pEC50 of 7.8. Also, the Emax in assay [2] (setting [3]) stood at 116%.

As to `O=C(O)c1ccc(N2C[C@@H]3C[C@H]2C[C@H]3OCc2c(C3CCC4(CC3)CC4)noc2C2CC2)cc1` [Compound I-125, 4-[(1S,4S,5R)-5-[(5-cyclopropyl-3-{spiro[2.5]octan-6-yl}-1,2-oxazol-4-yl)methoxy]-2-azabicyclo[2.2.1]heptan-2-yl]benzoic Acid], in assay [1], the Emax turned out to be 106% and the EC50 was 251 nM. Also, the Emax in assay [2] came to 92%.
